In ChEMBL document CHEMBL2417435, “The discovery of potent blockers of the canonical transient receptor channels, TRPC3 and TRPC6, based on an anilino-thiazole pharmacophore” (Bioorg Med Chem Lett, 2013):

Experiments:
[1] = molecular target: T1, Short transient receptor potential channel 3 (Homo sapiens, UniProt Q13507); assay: Inhibition of human recombinant TRPC3 expressed in HEK293-MSRII cells assessed as carbachol-stimulated Ca2+/Na+ influx after 10 mins by FLIPR assay; type: cell-based
T1 sequence (Q13507 whole entry): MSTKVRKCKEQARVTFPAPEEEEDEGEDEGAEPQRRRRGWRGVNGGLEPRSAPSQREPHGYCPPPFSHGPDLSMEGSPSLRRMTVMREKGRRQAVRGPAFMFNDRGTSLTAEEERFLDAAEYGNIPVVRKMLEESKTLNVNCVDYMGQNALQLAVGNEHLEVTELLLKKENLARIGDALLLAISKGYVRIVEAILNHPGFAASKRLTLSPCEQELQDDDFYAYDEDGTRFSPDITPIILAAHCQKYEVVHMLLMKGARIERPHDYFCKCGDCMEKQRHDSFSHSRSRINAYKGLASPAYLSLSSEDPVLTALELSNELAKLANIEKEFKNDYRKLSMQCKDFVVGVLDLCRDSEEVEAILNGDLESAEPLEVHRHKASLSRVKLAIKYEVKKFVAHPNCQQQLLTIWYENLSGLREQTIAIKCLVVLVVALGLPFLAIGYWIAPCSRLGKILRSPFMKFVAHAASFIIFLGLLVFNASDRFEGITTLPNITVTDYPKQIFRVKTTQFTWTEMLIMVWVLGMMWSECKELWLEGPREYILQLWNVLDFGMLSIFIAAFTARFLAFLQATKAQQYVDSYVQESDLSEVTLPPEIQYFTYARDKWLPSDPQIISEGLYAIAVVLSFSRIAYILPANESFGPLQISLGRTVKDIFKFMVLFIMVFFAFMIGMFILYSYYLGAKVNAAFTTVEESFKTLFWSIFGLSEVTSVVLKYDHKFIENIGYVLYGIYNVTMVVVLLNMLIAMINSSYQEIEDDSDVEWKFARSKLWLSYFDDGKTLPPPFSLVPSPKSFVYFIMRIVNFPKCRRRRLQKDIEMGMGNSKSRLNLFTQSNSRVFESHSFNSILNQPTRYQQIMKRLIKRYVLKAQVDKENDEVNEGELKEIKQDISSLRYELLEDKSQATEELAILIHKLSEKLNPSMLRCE

[2] = molecular target: T2, Short transient receptor potential channel 6 (Homo sapiens, UniProt Q9Y210); assay: Inhibition of human recombinant TRPC6 expressed in HEK293-MSRII cells assessed as carbachol-stimulated Ca2+/Na+ influx after 10 mins by FLIPR assay; type: cell-based
T2 sequence (Q9Y210 whole entry): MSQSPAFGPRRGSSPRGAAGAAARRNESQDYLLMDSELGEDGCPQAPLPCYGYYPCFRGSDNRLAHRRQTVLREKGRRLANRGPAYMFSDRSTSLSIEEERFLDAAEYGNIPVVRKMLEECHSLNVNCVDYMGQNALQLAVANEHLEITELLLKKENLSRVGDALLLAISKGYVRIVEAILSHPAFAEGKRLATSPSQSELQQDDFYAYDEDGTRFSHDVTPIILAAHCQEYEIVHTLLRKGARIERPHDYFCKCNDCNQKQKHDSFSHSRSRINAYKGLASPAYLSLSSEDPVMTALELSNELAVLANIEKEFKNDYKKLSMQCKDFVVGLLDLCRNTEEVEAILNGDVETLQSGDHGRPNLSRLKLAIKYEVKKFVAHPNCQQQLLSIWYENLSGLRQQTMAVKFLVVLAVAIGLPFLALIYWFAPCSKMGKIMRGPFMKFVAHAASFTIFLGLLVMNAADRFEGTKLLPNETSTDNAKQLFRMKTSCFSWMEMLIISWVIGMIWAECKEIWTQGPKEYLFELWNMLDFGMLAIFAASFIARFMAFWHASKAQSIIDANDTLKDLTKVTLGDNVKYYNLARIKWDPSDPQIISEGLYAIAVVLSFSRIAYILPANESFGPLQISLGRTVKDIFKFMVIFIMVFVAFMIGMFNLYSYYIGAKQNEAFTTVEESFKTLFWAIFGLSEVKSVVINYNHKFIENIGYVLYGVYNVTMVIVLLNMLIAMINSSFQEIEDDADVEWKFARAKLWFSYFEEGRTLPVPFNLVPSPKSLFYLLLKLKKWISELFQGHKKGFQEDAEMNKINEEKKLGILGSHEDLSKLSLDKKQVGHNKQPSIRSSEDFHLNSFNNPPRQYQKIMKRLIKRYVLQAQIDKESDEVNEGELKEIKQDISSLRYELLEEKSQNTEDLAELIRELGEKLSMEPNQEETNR

[3] = Mean residence time in rat at 1.04 mg/kg, iv; type: ADME, organism-based; set-up: dose 1.04 mg/kg, route intravenous; settings: in vivo
[4] = molecular target: Transient receptor potential cation channel subfamily V member 4 (Homo sapiens, UniProt Q9HBA0); assay: Inhibition of TRPV4 (unknown origin) by FLIPR assay
Chain of Transient receptor potential cation channel subfamily V member 4 (Q9HBA0 whole entry): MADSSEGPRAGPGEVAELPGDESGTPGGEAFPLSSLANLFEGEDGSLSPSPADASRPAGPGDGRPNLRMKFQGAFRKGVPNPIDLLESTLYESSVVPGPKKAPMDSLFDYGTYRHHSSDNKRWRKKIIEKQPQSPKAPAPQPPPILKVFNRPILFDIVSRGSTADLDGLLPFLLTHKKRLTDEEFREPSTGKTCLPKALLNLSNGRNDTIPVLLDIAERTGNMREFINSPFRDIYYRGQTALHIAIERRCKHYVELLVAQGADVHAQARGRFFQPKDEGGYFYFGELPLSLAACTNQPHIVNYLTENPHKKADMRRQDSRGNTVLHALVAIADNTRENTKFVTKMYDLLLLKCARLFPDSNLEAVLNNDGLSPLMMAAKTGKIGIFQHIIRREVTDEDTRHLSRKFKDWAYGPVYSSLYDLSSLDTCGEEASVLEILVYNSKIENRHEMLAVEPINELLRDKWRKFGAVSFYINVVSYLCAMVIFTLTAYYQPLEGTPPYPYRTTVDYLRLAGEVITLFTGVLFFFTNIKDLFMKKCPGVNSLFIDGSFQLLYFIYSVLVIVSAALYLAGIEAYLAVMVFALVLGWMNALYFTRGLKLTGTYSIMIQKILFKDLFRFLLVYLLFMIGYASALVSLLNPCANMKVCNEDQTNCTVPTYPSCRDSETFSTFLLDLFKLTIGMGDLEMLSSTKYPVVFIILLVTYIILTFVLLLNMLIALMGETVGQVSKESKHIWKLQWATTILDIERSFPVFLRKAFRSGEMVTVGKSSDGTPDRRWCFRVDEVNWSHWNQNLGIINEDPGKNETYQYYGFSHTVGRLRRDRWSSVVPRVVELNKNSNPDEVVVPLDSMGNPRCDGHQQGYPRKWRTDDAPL

[5] = molecular target: Transient receptor potential cation channel subfamily V member 1 (Homo sapiens, UniProt Q8NER1); assay: Inhibition of TRPV1 (unknown origin) by FLIPR assay
Chain of Transient receptor potential cation channel subfamily V member 1 (Q8NER1 whole entry): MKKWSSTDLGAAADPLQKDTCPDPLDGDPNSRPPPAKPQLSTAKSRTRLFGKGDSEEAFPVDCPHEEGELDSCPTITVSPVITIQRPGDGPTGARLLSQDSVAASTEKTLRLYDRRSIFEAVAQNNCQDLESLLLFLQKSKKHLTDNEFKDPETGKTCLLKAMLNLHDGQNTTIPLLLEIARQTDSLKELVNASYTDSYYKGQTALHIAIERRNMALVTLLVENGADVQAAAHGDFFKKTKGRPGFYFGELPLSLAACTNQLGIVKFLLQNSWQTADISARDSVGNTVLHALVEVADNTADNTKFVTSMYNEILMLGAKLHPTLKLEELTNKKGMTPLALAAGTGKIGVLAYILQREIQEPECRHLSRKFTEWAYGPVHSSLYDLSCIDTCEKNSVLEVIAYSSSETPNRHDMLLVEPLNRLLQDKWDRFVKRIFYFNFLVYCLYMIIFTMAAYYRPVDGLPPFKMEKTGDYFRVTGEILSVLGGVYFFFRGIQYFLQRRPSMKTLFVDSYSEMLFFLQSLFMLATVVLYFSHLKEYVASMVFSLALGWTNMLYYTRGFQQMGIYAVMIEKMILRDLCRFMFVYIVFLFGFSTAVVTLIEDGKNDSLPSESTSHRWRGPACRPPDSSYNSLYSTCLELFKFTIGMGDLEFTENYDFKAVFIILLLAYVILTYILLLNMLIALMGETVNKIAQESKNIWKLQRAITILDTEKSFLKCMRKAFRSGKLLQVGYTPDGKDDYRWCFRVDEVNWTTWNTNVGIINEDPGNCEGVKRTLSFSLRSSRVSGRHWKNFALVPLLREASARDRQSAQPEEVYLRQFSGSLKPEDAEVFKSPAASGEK

[6] = molecular target: Voltage-gated inwardly rectifying potassium channel KCNH2 (Homo sapiens, UniProt Q12809); assay: Inhibition of human ERG channel by patch express-based electrophysiology assay
Chain of Voltage-gated inwardly rectifying potassium channel KCNH2 (Q12809 whole entry): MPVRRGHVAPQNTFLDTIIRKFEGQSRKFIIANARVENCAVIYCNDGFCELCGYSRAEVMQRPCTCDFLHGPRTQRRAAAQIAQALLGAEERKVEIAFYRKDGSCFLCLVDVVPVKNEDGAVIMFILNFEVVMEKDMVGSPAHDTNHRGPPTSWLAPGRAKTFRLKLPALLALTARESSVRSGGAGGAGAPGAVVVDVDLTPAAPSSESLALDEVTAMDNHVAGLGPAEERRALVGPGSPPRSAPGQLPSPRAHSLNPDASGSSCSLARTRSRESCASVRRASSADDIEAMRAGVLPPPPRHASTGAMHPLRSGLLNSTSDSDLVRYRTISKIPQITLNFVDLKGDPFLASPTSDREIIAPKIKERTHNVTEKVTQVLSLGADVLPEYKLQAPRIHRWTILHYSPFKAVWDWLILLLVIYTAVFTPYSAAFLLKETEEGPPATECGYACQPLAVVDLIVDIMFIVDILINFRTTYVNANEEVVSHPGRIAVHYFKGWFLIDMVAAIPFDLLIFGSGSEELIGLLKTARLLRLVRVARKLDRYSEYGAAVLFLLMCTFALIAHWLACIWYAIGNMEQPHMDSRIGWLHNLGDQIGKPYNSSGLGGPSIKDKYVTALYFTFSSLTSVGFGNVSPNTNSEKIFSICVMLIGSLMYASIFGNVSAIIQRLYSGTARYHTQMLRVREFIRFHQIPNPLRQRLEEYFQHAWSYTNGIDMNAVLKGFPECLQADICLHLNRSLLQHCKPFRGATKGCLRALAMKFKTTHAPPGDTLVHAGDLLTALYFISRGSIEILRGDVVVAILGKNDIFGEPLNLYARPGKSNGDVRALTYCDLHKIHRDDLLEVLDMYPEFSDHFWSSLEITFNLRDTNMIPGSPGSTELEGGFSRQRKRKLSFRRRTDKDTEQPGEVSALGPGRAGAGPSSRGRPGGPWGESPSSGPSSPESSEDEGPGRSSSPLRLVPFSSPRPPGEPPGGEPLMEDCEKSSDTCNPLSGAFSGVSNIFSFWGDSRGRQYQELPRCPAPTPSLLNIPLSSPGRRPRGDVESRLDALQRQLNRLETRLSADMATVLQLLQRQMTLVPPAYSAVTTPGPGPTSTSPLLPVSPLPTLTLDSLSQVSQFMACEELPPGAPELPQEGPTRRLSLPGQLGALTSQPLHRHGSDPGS

[7] = Oral bioavailability in rat at 1.04 mg/kg; type: ADME, organism-based; settings: in vivo
[8] = Clearance in rat at 1.04 mg/kg, iv; type: ADME, organism-based; set-up: dose 1.04 mg/kg, route intravenous; settings: in vivo
[9] = Cmax in rat at 1.04 mg/kg, iv; type: ADME, organism-based; set-up: dose 1.04 mg/kg, route intravenous; settings: in vivo
[10] = molecular target: Voltage-dependent L-type calcium channel subunit alpha-1C (Homo sapiens, UniProt Q13936); assay: Inhibition of CaV1.2 channel (unknown origin) by patch express-based electrophysiology assay
[11] = molecular target: Transient receptor potential cation channel subfamily A member 1 (Homo sapiens, UniProt O75762); assay: Inhibition of TRPA1 (unknown origin) by FLIPR assay
[12] = molecular target: Sodium channel protein type 5 subunit alpha (Homo sapiens, UniProt Q14524); assay: Inhibition of NaV1.5 channel (unknown origin) by patch express-based electrophysiology assay
Chain of Sodium channel protein type 5 subunit alpha (Q14524 whole entry): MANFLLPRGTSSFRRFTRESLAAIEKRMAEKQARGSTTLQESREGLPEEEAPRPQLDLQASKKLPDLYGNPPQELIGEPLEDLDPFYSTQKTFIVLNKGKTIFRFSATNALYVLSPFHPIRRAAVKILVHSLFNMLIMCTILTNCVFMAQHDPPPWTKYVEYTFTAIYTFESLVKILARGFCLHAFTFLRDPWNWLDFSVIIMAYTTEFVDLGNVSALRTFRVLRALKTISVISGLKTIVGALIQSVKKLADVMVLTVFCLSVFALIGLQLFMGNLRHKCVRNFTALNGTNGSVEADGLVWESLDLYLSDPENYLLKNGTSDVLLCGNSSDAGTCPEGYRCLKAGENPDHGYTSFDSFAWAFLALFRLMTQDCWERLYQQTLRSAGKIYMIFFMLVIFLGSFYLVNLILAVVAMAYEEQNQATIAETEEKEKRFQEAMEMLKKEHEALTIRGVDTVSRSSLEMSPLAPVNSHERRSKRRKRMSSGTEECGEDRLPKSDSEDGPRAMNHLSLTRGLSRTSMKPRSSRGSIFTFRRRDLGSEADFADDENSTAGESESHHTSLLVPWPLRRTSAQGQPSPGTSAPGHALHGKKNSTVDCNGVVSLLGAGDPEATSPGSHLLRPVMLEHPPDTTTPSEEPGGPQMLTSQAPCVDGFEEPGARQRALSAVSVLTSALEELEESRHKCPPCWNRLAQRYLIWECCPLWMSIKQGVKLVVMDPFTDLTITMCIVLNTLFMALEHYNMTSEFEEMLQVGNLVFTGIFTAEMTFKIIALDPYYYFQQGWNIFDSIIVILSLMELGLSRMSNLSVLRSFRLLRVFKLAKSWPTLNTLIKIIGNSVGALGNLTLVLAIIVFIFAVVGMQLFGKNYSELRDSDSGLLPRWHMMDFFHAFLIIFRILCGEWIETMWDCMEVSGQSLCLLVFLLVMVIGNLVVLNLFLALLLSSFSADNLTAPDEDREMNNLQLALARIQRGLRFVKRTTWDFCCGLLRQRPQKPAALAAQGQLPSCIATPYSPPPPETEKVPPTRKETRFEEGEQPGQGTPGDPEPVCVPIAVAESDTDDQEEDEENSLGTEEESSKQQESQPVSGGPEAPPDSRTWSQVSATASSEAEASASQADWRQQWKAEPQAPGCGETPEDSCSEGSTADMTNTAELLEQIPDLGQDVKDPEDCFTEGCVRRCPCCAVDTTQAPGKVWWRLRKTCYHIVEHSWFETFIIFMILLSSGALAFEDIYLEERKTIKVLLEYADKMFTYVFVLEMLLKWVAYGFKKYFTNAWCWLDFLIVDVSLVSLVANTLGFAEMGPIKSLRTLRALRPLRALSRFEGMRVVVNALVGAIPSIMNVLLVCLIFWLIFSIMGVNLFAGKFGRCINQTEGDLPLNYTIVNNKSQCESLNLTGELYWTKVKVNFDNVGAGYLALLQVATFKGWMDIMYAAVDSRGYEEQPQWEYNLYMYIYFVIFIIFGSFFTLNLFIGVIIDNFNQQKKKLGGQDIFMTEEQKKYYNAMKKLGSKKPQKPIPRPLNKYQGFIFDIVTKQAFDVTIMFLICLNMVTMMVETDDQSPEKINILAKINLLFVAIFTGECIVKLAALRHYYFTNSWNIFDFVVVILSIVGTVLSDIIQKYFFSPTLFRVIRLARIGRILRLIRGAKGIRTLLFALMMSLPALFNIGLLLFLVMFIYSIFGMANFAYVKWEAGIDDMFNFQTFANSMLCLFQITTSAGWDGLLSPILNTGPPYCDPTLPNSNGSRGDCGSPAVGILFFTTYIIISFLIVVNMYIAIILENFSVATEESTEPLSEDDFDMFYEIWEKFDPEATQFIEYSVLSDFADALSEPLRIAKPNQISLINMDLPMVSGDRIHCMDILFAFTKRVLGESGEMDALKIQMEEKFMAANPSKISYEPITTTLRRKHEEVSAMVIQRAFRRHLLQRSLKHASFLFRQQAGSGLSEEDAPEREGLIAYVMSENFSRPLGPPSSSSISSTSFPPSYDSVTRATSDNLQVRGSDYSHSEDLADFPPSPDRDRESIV

Rattus norvegicus [13] = assay: Dose normalized AUC in rat at 1.04 mg/kg, iv; type: ADME, organism-based; set-up: dose 1.04 mg/kg, route intravenous; settings: in vivo
Rattus norvegicus [14] = assay: Volume of distribution at steady state in rat at 0.93 mg/kg, iv; type: ADME, organism-based; set-up: dose 0.93 mg/kg, route intravenous; settings: in vivo
Rattus norvegicus [15] = assay: Mean residence time in rat at 0.93 mg/kg, iv; type: ADME, organism-based; set-up: dose 0.93 mg/kg, route intravenous; settings: in vivo
[16] = Oral bioavailability in rat at 0.93 mg/kg; type: ADME, organism-based; settings: in vivo
[17] = Cmax in rat at 0.93 mg/kg, iv; type: ADME, organism-based; set-up: dose 0.93 mg/kg, route intravenous; settings: in vivo
Rattus norvegicus [18] = assay: Dose normalized AUC in rat at 0.93 mg/kg, iv; type: ADME, organism-based; set-up: dose 0.93 mg/kg, route intravenous; settings: in vivo
[19] = Oral bioavailability in rat at 1.05 mg/kg; type: ADME, organism-based; settings: in vivo
[20] = Cmax in rat at 1.05 mg/kg, iv; type: ADME, organism-based; set-up: dose 1.05 mg/kg, route intravenous; settings: in vivo
Rattus norvegicus [21] = assay: Dose normalized AUC in rat at 1.05 mg/kg, iv; type: ADME, organism-based; set-up: dose 1.05 mg/kg, route intravenous; settings: in vivo
[22] = Mean residence time in rat at 1.05 mg/kg, iv; type: ADME, organism-based; set-up: dose 1.05 mg/kg, route intravenous; settings: in vivo
[23] = Clearance in rat at 1.05 mg/kg, iv; type: ADME, organism-based; set-up: dose 1.05 mg/kg, route intravenous; settings: in vivo

Row | IC50 [1] [nM] | IC50 [2] [nM] | Structure (SMILES) | also measured
1 | 500 | 160 | O=C(c1csc(Nc2ccc3c(c2)OCO3)n1)N1CCc2ccccc2C1 | –
2 | 250 | 50 | Cc1sc(Nc2ccc(Cl)cc2F)nc1C(=O)N1CCCC(C)C1C (racemic) | –
3 | 250 | 80 | Cc1ccc(Nc2nc(C(=O)N3CCCC(C)C3C)cs2)cc1 (stereo not given) | MRT [3]: 2.8 h; IC50 [4]: 6300 nM; IC50 [5]: 1260 nM; IC50 [6]: > 50000 nM; bioavailability [7]: < 1%; clearance [8]: 75 mL/min/kg; Cmax [9]: 310 ng/mL; IC50 [10]: 10000 nM; IC50 [11]: 8000 nM; IC50 [12]: 50000 nM; AUC/dose (Rattus norvegicus [13]): 0.2 kg·L·h
4 | 1000 | 1600 | Cc1sc(Nc2ccc(Cl)cc2F)nc1C(=O)N1CCC[C@@H](C)[C@H]1C | –
5 | 800 | 630 | Cc1ccc(Nc2nc(C(=O)N3CCCCC3C)cs2)cc1 (stereo not given) | –
6 | 1260 | 500 | COc1ccc(Nc2nc(C(=O)N3CCc4ccccc4C3)cs2)cc1 | Vdss (Rattus norvegicus [14]): 0.7 L/kg; MRT (Rattus norvegicus [15]): 0.3 h; bioavailability [16]: 1%; Cmax [17]: 250 ng/mL; AUC/dose (Rattus norvegicus [18]): 0.14 kg·h/L
7 | 400 | 160 | CC1CCN(C(=O)c2csc(Nc3ccc4c(c3)OCO4)n2)CC1 | –
8 | 160 | 25 | Cc1sc(Nc2cc3c(cc2F)OCO3)nc1C(=O)N1CCCC(C)C1C (stereo not given) | –
9 | 80 | 16 | CC1CCCN(C(=O)c2csc(Nc3ccc4c(c3)OCO4)n2)C1C (stereo not given) | bioavailability [19]: < 1%; Cmax [20]: 340 ng/mL; AUC/dose (Rattus norvegicus [21]): 0.2 kg·L·h; MRT [22]: 2.1 h; clearance [23]: 86 mL/min/kg
10 | 6300 | 4000 | Cc1ccc(Nc2nc(C(=O)N3CCC(C4CCCCC4)CC3)cs2)cc1 | –
11 | 6300 | 3160 | CC1CCN(C(=O)c2csc(Nc3ccccc3Cl)n2)CC1 | –
12 | 1600 | 630 | CC1CCN(C(=O)c2csc(Nc3ccc(Cl)cc3F)n2)CC1 | –
